Experimental data: article PMC10507113, “Function and phylogeny support the independent evolution of an ASIC-like Deg/ENaC channel in the Placozoa” (Communications Biology, 2023)

What was measured:
mouse ASIC1a (mASIC1a) = biological target: T1, mouse ASIC1a (mASIC1a) (Mus musculus, UniProt Q6NXK8); assay: whole-cell patch clamp, CHO-K1, single-dose block of peak inward current; type: cell-based; conditions: read-out: % block at 3 mM
T1 construct: gene Asic1; synthetic full-length subunit, untagged in pIRES2-EGFP (pmASIC1-IR-EGFP), CHO-K1 cells; homotrimer
T1 sequence (Q6NXK8 1-526): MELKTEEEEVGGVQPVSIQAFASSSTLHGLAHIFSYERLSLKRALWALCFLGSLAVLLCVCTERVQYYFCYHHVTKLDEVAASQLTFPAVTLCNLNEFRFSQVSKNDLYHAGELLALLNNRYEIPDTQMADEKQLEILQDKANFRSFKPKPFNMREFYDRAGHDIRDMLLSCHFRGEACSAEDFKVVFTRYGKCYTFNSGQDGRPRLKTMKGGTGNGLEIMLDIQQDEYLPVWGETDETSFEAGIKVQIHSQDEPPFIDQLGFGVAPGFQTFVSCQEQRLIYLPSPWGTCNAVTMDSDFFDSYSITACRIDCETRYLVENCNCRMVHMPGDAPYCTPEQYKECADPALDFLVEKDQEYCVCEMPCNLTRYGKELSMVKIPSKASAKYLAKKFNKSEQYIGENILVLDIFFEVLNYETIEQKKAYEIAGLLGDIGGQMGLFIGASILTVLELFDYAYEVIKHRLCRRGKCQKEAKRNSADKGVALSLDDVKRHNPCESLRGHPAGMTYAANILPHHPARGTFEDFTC

TadNaC2 = biological target: T2, TadNaC2 (Trichoplax adhaerens, UniProt A0A5J6BSS6); assay: whole-cell patch clamp, CHO-K1, amiloride dose-response of peak inward current; type: cell-based
T2 construct: gene ASIC2; full-length cDNA cloned from whole-animal RNA, untagged in pIRES2-EGFP (pTadNaC2-IR-EGFP), CHO-K1 cells; homotrimer modelled; residues F70, T72, D75, E77, H80, E104, E105, H109, W165, F188, L198, R201, K203, S228, P229, W276, L332, S336, D413
T2 sequence (A0A5J6BSS6 1-548): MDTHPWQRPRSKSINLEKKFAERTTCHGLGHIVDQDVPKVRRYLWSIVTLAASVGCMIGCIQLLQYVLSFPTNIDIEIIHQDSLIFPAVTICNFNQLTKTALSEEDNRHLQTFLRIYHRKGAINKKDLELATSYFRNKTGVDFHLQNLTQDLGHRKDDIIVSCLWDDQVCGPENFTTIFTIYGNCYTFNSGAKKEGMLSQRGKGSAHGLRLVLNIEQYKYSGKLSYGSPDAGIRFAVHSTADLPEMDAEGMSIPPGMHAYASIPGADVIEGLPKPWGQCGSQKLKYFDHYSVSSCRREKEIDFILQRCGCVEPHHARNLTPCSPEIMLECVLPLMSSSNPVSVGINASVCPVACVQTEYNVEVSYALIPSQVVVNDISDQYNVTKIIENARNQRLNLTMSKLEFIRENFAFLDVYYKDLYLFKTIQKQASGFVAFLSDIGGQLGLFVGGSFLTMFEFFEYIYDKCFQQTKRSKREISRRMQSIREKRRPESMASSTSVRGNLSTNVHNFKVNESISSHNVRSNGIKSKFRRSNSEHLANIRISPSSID

Q: With `N=C(N)NC(=O)c1nc(Cl)c(N)nc1N` [amiloride] as the compound, how does the inhibition at 3000 µM (mouse ASIC1a (mASIC1a)) read?
A: 73 ± 4.1%

Q: And the IC50 (TadNaC2)?
A: 52 ± 29.6 µM
